According to patent US7501430B2 (ArQule, Inc., priority 2006, dated 2009):
Read-outs that look alike come from different tables or passages of the source.

Key:
[1] = test system: NCM460 normal colon epithelial cell line; assay: MTS cell growth assay, NCM460; type: cell-based; conditions: Homo sapiens, NCM460 normal cells, 72 hours
From the text: (§1) Compounds of the present invention have been tested for activity against a variety of cancer cell lines. The ability of compounds to inhibit cell growth in this assay is correlated with the reduction of dehydrogenase enzyme activity found in metabolically active cells.
(§2) Materials: A375 (a human melanoma cell line that harbors the B-RAF mutation V600E), Colo-205 (a human colon cancer cell line that harbors the B-RAF mutation V600E), DLD1 (a human colon cancer cell line that harbors the K-ras mutation G13D), SK-MEL-2 (a human melanoma cell line that harbors the N-ras mutation Q61R), SK-MEL-28 (a human melanoma cell line that harbors the B-RAF mutation V600E), and SW480 (a human colon cancer cell line that harbors the K-ras mutation G12V) cells from ATCC were maintained at 37° C., 5% CO2 in DMEM media supplemented with 10% fetal bovine serum, penicillin/streptomycin and fungizone (Invitrogen). NCM460 (Incell), a normal colon epithelial cell line, and human mammary epithelial cells (Cambrex) were maintained at 37° C., 5% CO2 in DMEM and HEBM media (Cambrex), respectively.
(§3) Methods: Test compounds were dissolved and diluted to 300× in DMSO then diluted 1:40 in DMEM. Cells were seeded into 96-well tissue culture plates at 2-5×10^3 per well and cultured at 37° C. for 24 h. Cells were incubated with test compounds for 72 hours followed by incubation with tetrazolium compound (3-(4,5-dimethylthiazol-2-yl)-5-(3-carboxymethoxyphenyl)-2-(4-sulfophenyl)-2H-tetrazolium, inner salt; MTS) and the electron coupling reagent, phenazine methosulfate (PMS) for 4 hr. […] The measurement of the absorbance of the formazan was assessed using an ENVISION™ (Perkin Elmer) microplate reader at 492 nm. The calculated IC50 value is the concentration of the test compound that causes a 50% decrease in the absorbance.

[2] = test system: SK-MEL-2 human melanoma cell line (N-ras Q61R); assay: MTS cell growth assay, SK-MEL-2; type: cell-based; conditions: SKMEL2 cells, 72 hours, read-out: IC50 SKMEL2 NRAS (Q61R)
From the text: as §1, §2, §3

[3] = test system: DLD1 human colon cancer cell line (K-ras G13D); assay: MTS cell growth assay, DLD1; type: cell-based; conditions: DLD-1, DLD1 cells, 72 hours, read-out: IC50 DLD1 KRAS (G13D)
From the text: as §1, §2, §3

[4] = test system: SW480 human colon cancer cell line (K-ras G12V); assay: MTS cell growth assay, SW480; type: cell-based; conditions: SW480 cells, 72 hours, read-out: IC50 SW480 KRAS (G12V)
From the text: as §1, §2, §3

[5] = test system: Colo-205 human colon cancer cell line (B-RAF V600E); assay: MTS cell growth assay, Colo-205; type: cell-based; conditions: Colo205 cells, 72 hours
From the text: as §1, §2, §3

[6] = test system: human mammary epithelial cells (HMEC, normal); assay: MTS cell growth assay, HMEC; type: cell-based; conditions: 72 hours
From the text: as §1, §2, §3

[7] = test system: A375 human melanoma cell line (B-RAF V600E); assay: MTS cell growth assay, A375; type: cell-based; conditions: A-375, A375 cells, 72 hours
From the text: as §1, §2, §3

[8] = test system: SK-MEL-28 human melanoma cell line (B-RAF V600E); assay: MTS cell growth assay, SK-MEL-28; type: cell-based; conditions: SKMEL28 cells, 72 hours
From the text: as §1, §2, §3

[9] = target: T1, mutant B-RAF (Homo sapiens, UniProt P15056, V600E); assay: RAF biochemical assay (MEK-1 phosphorylation, anti-phospho MEK1/2 detection); conditions: for IC50: read-out: Mutant B-RAF IC50; for inhibition at 10 µM: read-out: Mutant B-RAF % inhibition
T1 construct: purchased Upstate (Charlottesville, Va.)
In short: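 Detection is by ELISA: after a 30 min room-temperature reaction, plate-captured GST-MEK-1 is probed with anti-phospho MEK1/2, then an AP-tagged secondary antibody with fluorescent Attophos read-out.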

T1 sequence (P15056 whole entry V600E): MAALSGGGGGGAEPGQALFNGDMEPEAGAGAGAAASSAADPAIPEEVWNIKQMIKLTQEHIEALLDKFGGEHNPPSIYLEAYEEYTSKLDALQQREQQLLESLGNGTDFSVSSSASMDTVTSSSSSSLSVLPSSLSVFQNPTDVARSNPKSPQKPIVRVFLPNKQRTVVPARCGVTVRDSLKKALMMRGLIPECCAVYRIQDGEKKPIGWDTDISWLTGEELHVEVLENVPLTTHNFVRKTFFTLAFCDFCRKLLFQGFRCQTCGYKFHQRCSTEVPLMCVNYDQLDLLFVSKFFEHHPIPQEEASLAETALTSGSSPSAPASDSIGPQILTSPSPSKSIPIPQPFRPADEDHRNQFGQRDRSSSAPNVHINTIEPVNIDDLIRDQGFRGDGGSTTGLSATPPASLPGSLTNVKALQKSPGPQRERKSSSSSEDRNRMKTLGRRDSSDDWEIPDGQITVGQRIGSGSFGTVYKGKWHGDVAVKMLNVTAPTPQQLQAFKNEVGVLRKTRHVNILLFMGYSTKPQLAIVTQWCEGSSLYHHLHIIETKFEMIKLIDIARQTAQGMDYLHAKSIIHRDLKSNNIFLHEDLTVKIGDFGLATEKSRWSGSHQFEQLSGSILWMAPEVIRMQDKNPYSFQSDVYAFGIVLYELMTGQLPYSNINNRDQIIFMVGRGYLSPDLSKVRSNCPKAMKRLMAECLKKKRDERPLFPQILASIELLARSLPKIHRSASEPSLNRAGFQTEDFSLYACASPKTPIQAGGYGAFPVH

IC50 [9] [nM] | inhibition at 10 µM ([9]; @ 10 uM) [%] | Structure (SMILES) | further results
250 |  | COc1ccccc1-c1nc2sccn2c1-c1ccnc(N[C@@H]2CCCN(S(=O)(=O)c3ccc(Cl)cc3)C2)n1 [Example 105, N-{(3R)-1-[(4-chlorophenyl)sulfonyl]piperidin-3-yl}-4-[6-(2-methoxyphenyl)imidazo[2,1-b][1,3]thiazol-5-yl]pyrimidin-2-amine] | IC50 [1]: 6680 nM; IC50 [2]: 1100 nM; IC50 [3]: 4730 nM; IC50 [4]: 1280 nM; IC50 [5]: 380 nM; IC50 [6]: 2720 nM; IC50 [7]: 310 nM; IC50 [8]: 480 nM
31 |  | O=S(=O)(c1ccc(Cl)cc1)N1CCC(Nc2nccc(-c3c(-c4cccc(O)c4)nc4sccn34)n2)CC1 [Example 267, 3-{5-[2-({1-[(4-chlorophenyl)sulfonyl]piperidin-4-yl}amino)pyrimidin-4-yl]imidazo[2,1-b][1,3]thiazol-6-yl}phenol] | IC50 [1]: 2050 nM; IC50 [2]: 870 nM; IC50 [3]: 1760 nM; IC50 [4]: 2130 nM; IC50 [5]: 190 nM; IC50 [6]: 1070 nM; IC50 [7]: 270 nM; IC50 [8]: 380 nM
> 3000 |  | O=S(=O)(Cc1ccccc1)N1CCC[C@@H](Nc2nccc(-c3c(-c4cccc(O)c4)nc4occn34)n2)C1 [Example 391, 3-[5-(2-{[(3R)-1-(benzylsulfonyl)piperidin-3-yl]amino}pyrimidin-4-yl)imidazo[2,1-b][1,3]oxazol-6-yl]phenol] | 
3260 |  | O=C(Nc1ccc(F)cc1)N1CCC[C@@H](Nc2nccc(-c3c(-c4cccc(O)c4)nc4sccn34)n2)C1 [Example 335, (3R)-N-(4-fluorophenyl)-3-({4-[6-(3-hydroxyphenyl)imidazo[2,1-b][1,3]thiazol-5-yl]pyrimidin-2-yl}amino)piperidine-1-carboxamide] | 
576 |  | O=C(O)c1ccc(S(=O)(=O)N2CCC[C@@H](Nc3nccc(-c4c(-c5ccc(F)cc5)nc5occn45)n3)C2)cc1 [Example 59, 4-{[(3R)-3-({4-[6-(4-fluorophenyl)imidazo[2,1-b][1,3]oxazol-5-yl]pyrimidin-2-yl}amino)piperidin-1-yl]sulfonyl}benzoic acid] | 
1190 |  | O=C(O)c1cccc(-c2nc3sccn3c2-c2ccnc(N[C@@H]3CCCN(S(=O)(=O)c4ccc(Cl)cc4)C3)n2)c1 [Example 382, 3-{5-[2-({(3R)-1-[(4-chlorophenyl)sulfonyl]piperidin-3-yl}amino)pyrimidin-4-yl]imidazo[2,1-b][1,3]thiazol-6-yl}benzoic acid] | 
392 |  | COc1cccc(-c2nc3sccn3c2-c2ccnc(NC3CCN(S(=O)(=O)c4ccc(F)cc4)CC3)n2)c1 [Example 214, N-{1-[(4-fluorophenyl)sulfonyl]piperidin-4-yl}-4-[6-(3-methoxyphenyl)imidazo[2,1-b][1,3]thiazol-5-yl]pyrimidin-2-amine] | 
 | 35 | O=C(Nc1ccccc1F)N1CCC[C@@H](Nc2nccc(-c3c(-c4ccc(F)cc4)nc4occn34)n2)C1 [Example 74, (3R)-N-(2-fluorophenyl)-3-({4-[6-(4-fluorophenyl)imidazo[2,1-b][1,3]oxazol-5-yl]pyrimidin-2-yl}amino)piperidine-1-carboxamide] | 
 |  | O=S(=O)(c1ccc(OC(F)(F)F)cc1)N1CCC[C@@H](Nc2nccc(-c3c(-c4ccc(F)cc4)nc4occn34)n2)C1 [Example 49, 4-[6-(4-fluorophenyl)imi-dazo[2,1-b][1,3]oxazol-5-yl]-N-((3R)-1-{(4-(trifluoro-methoxy)phenyl]sulfonyl}piperidin-3-yl)pyrimidin-2-amine] | inhibition at 10 µM [9]: 32%
 | 47 | CC(=O)N1CCC(Nc2nccc(-c3c(-c4ccc(F)cc4Cl)nc4occn34)n2)CC1 [Example 305, N-(1-acetylpiperidin-4-yl)-4-[6-(2-chloro-4-fluorophenyl)imidazo[2,1-b][1,3]oxazol-5-yl]pyrimidin-2-amine] | 
1320 |  | O=C(C1CCNCC1)N1CCC(Nc2nccc(-c3c(-c4ccc(F)cc4)nc4occn34)n2)CC1 [Example 162, 4-[6-(4-fluorophenyl)imidazo[2,1-b][1,3]oxazol-5-yl]-N-[1-(piperidin-4-ylcarbonyl)piper-idin-4-yl]pyrimidin-2-amine] | 
 | 37 | COc1ccc(Cl)cc1S(=O)(=O)N1CCC[C@@H](Nc2nccc(-c3c(-c4ccc(F)cc4)nc4occn34)n2)C1 [Example 61, N-{(3R)-1-[(5-chloro-2-methoxyphenyl)sulfonyl]piperidin-3-yl}-4-[6-(4-fluorophenyl)imidazo[2,1-b][1,3]oxazol-5-yl]pyrimidin-2-amine] | 
352 |  | Cc1cn2c(-c3ccnc(N[C@@H]4CCCN(S(=O)(=O)c5ccc(F)cc5)C4)n3)c(-c3ccc(F)cc3)nc2s1 [Example 91, 4-[6-(4-fluorophenyl)-2-methylimidazo[2,1-b][1,3]thiazol-5-yl]-N-{(3R)-1-[(4-fluorophenyl)sulfonyl]piper-idin-3-yl}pyrimidin-2-amine] | 
329 |  | O=S(=O)(c1cccc(Cl)c1)N1CCC(Nc2nccc(-c3c(-c4ccc(F)cc4)nc4occn34)n2)CC1 [Example 206, N-{1-[(3-chlorophenyl)sulfonyl]piperidin-4-yl}-4-[6-(4-fluorophenyl)imidazo[2,1-b][1,3]oxazol-5-yl]pyrimidin-2-amine] | 
 | 53 | COc1cccc(-c2nc3sccn3c2-c2ccnc(NC3CCN(C(=O)NCc4ccccc4)CC3)n2)c1 [Example 233, N-benzyl-4-({4-[6-(3-methoxyphenyl)imidazo[2,1-b][1,3]thiazol-5-yl]pyrimidin-2-yl}amino)piperidine-1-carboxamide] | 
 | 76 | O=C(NCc1ccco1)N1CCC(Nc2nccc(-c3c(-c4ccc(F)c(F)c4)nc4sccn34)n2)CC1 [Example 243, 4-({4-[6-(3,4-difluorophenyl)imidazo[2,1-b][1,3]thiazol-5-yl]pyrimidin-2-yl}amino)-N-(2-furylmethyl)piperidine-1-carboxamide] | 
408 |  | COc1cccc(S(=O)(=O)N2CCC(Nc3nccc(-c4c(-c5ccc(F)cc5)nc5occn45)n3)CC2)c1 [Example 231, 4-[6-(4-fluorophenyl)imidazo[2,1-b][1,3]oxazol-5-yl]-N-{1-[(3-methoxyphenyl)sulfonyl]piperidin-4-yl}pyrimidin-2-amine] | 
 | 24 | CCOC(=O)c1ccc(-c2nc3sccn3c2-c2ccnc(N[C@@H]3CCCNC3)n2)cc1OCC [Example 128, ethyl 2-ethoxy-4-(5-{2-[(3R)-piperidin-3-ylamino]pyrimidin-4-yl}imidazo[2,1-b][1,3]thiazol-6-yl)benzoate] | 
825 |  | COc1cccc(-c2nc3sccn3c2-c2ccnc(NC3CCN(C(=O)NCc4ccco4)CC3)n2)c1 [Example 234, N-(2-furylmethyl)-4-({4-[6-(3-methoxyphenyl)imidazo[2,1-b][1,3]thiazol-5-yl]pyrimidin-2-yl}amino)piperidine-1-carboxamide] | 
1790 |  | CCCNC(=O)N1CCC(Nc2nccc(-c3c(-c4cccc(O)c4)nc4sccn34)n2)CC1 [Example 355, 4-({4-[6-(3-hydroxyphenyl)imidazo[2,1-b][1,3]thiazol-5-yl]pyrimidin-2-yl}amino)-N-propylpiperidine-1-carboxamide] | 
 | 35 | O=S(=O)(c1cccc(Cl)c1)N1CCC[C@@H](Nc2nccc(-c3c(-c4ccc(F)cc4)nc4occn34)n2)C1 [Example 50, N-{(3R)-1-[(3-chlorophenyl)sulfonyl]piper-idin-3-yl}-4-[6-(4-fluorophenyl)imidazo[2,1-b][1,3]oxazol-5-yl]pyrimidin-2-amine] | 
441 |  | O=C(O)CCc1ccc(S(=O)(=O)N2CCC[C@@H](Nc3nccc(-c4c(-c5ccc(F)cc5)nc5occn45)n3)C2)cc1 [Example 63, 3-(4-{[(3R)-3-({4-[6-(4-fluorophenyl)imidazo[2,1-b][1,3]oxazol-5-yl]pyrimidin-2-yl}amino)piperidin-1-yl]sulfonyl}phenyl)propanoicacid] | 
